US9637485B2, “6,7-dihydrobenzo[a]quinolizin-2-one derivatives for the treatment and prophylaxis of hepatitis B virus infection” (Hoffmann-La Roche Inc., priority 2014, dated 2017)
Like-named read-outs stand apart in the source and are kept apart here.

What was measured:
HBsAg = HBsAg assay (CLIA of secreted HBsAg in HepG2.2.15 culture supernatant); type: cell-based, HBV
Description: (§1) HepG2.2.15 cells (Acs et al. Proc Natl Acad Sci USA, 84, (1987), 4641-4), a constitutively HBV-expressing cell line were cultured in DMEM+Glutamax-I medium (Invitrogen, Carlsbad, Calif., USA, Catalog number: 11320082), supplemented with 10% fetal bovine serum (Invitrogen, Catalog number: 10099141) and G418 (Invitrogen, Catalog number: 10131027) at a final concentration of 200 mg/L and maintained in 5% CO2 at 37° C.
HepG2.2.15 cells were seeded in duplicate into white, 96-well plates at 1.5×10^4 cells/well. The cells were treated with a three-fold serial dilution series of the compounds in DMSO. The final DMSO concentration in all wells was 1% and DMSO was used as no drug control.
The HBsAg chemiluminescence immunoassay (CLIA) kit (Autobio Diagnostics Co., Zhengzhou, China, Catalog number: CL0310-2) was used to measure the levels of secreted HBV antigens semi-quantitatively. For the detection 50 μL/well culture supernatant was used and HBsAg was quantified using HBsAg chemiluminescence immunoassay (CLIA) kit (Autobio Diagnostics Co., Zhengzhou, China, Catalog number: CL0310-2), 50 μl of the supernatant was transferred to the CLIA assay plate and 50 μL of enzyme conjugate reagent was added into each well. The plates were sealed and gently agitated for 1 hour at room temperature. The supernatant-enzyme-mixture was discarded and wells were washed 6 times with 300 μL of PBS. The residual liquid was removed by plating the CLIA plate right side down on absorbent tissue paper. 25 μL of substrates A and B were added to each well. Luminance was measured using a luminometer (Mithras LB 940 Multimode Microplate Reader) after 10 minutes incubation. Dose-response curves were generated and the IC50 value was extrapolated by using the E-WorkBook Suite (ID Business Solutions Ltd., Guildford, UK). The IC50 was defined as the compound concentration (or conditioned media log dilution) at which HBsAg secretion was reduced by 50% compared to the no drug control.

HBV DNA = HBV DNA assay (real-time qPCR/TaqMan of extracellular HBV DNA, HepG2.2.15 cells); type: cell-based; conditions: Hepatitis B virus, 144 h, supernatant six days after initial administration, qPCR, read-out: IC50 (Anti HBV DNA production activity)
Description: as §1
The assay employs real-time qPCR (TaqMan) to directly measure extracellular HBV DNA copy number. HepG2.2.15 cells were plated in 96-well microtiter plates. Only the interior wells were utilized to reduce “edge effects” observed during cell culture, the exterior wells were filled with complete medium to help minimize sample evaporation. On the following day, the HepG2.2.15 cells were washed and the medium was replaced with complete medium containing various concentrations of a test compound in triplicate. 3TC was used as the positive control, while media alone was added to cells as a negative control (virus control, VC). Three days later, the culture medium was replaced with fresh medium containing the appropriately diluted drug. […] Antiviral activity was calculated from the reduction in HBV DNA levels (IC50).

[1] = read-out: IC50 (HBsAg secretion reduced by 50% compared to the no drug control), HepG2.2.15 cells, culture supernatant, HBsAg CLIA
[2] = Hepatitis B virus, HepG2.2.15, read-out: IC50 (HBsAg secretion reduced by 50% compared to the no drug control), HepG2.2.15 cells, culture supernatant, HBsAg CLIA

Q: Which IC50 (HBsAg; [1]) does the source give for COCCCOc1cc2c(cc1OC)-c1cc(=O)c(C(=O)O)cn1[C@H](C(C)(C)CO)C2 (single isomer, unassigned) [Example 25, (+)-6-(2-Hydroxy-1,1-dimethyl-ethyl)-10-methoxy-9-(3-methoxypropoxy)-2-oxo-6,7-dihydrobenzo[a]quinolizine-3-carboxylic acid] here?
A: 2 nM

Q: What about the IC50 (HBV DNA) of the same molecule?
A: < 32 nM

Q: COCCCOc1cc2c(cc1OC)-c1cc(=O)c(C(=O)O)cn1C(C(C)(C)COC)C2 (single isomer, unassigned) [Example 28, (+)-10-Methoxy-6-(2-methoxy-1,1-dimethyl-ethyl)-9-(3-methoxypropoxy)-2-oxo-6,7-dihydrobenzo[a]quinolizine-3-carboxylic acid] was tested. Which IC50 (HBsAg; [1]) did it give?
A: 3 nM

Q: What about the IC50 (HBV DNA) of the same molecule?
A: 0.5 nM

Q: For COCC(C)(C)C1Cc2cc(OCCCn3cccn3)c(OC)cc2-c2cc(=O)c(C(=O)O)cn21 (centres unmarked) [Example 44, 10-Methoxy-6-(2-methoxy-1,1-dimethyl-ethyl)-2-oxo-9-(3-pyrazol-1-ylpropoxy)-6,7-dihydrobenzo[a]quinolizine-3-carboxylic acid], which IC50 (HBsAg; [2]) is on record?
A: 190 nM

Q: For CCc1cc2c(cc1OC)-c1cc(=O)c(C(=O)O)cn1C(C(C)(C)COC)C2 (centres unmarked) [Example 45, 9-Ethyl-10-methoxy-6-(2-methoxy-1,1-dimethyl-ethyl)-2-oxo-6,7-dihydrobenzo[a]quinolizine-3-carboxylic acid], which IC50 (HBsAg; [2]) is on record?
A: 74 nM

Q: COCC(C)(C)C1Cc2cc(N3CCCC3)c(OC)cc2-c2cc(=O)c(C(=O)O)cn21 (centres unmarked) [Example 46, 10-Methoxy-6-(2-methoxy-1,1-dimethyl-ethyl)-2-oxo-9-pyrrolidin-1-yl-6,7-dihydrobenzo[a]quinolizine-3-carboxylic acid] was tested. Which IC50 (HBsAg; [2]) did it give?
A: 9 nM

Q: For COCC(C)(C)C1Cc2cc(C#N)c(OC)cc2-c2cc(=O)c(C(=O)O)cn21 (centres unmarked) [Example 47, 9-Cyano-10-methoxy-6-(2-methoxy-1,1-dimethyl-ethyl)-2-oxo-6,7-dihydrobenzo[a]quinolizine-3-carboxylic acid], which IC50 (HBsAg; [2]) is on record?
A: 230 nM
